Test results from US11083725B2 (priority 2014, dated 2021).

Tested on: NHBE cells
Assay: Biolog metabolic array: substrate use by NHBE cells with or without CA09 infection
Assay type: cell-based, human
Conditions: for Substrate use, 590 nm absorbance normalized to zero hour, 1 hr: Biolog PMM2, 1 hr; for Substrate use, 590 nm absorbance normalized to zero hour, 5 hr: Biolog PMM2, 5 hr; for Substrate use, 590 nm absorbance normalized to zero hour, 7 hr: Biolog PMM2, 7 hr; for Substrate use, 590 nm absorbance normalized to zero hour, 0 hr: Biolog PMM2, 0 hr
[1] = Control (uninfected) NHBE cells
[2] = Virus (CA09, MOI 1) infected NHBE cells
[3] = Virus (CA09-infected, MOI 1) NHBE cells
[4] = Virus (CA09-infected NHBE cells, MOI 1)
[5] = Virus: CA09-infected NHBE cells, MOI 1, Biolog PMM2

CC(=O)N[C@@H]1C(O)O[C@H](CO)[C@@H](O)[C@@H]1O (stereo partly drawn) [N-Acetyl-D-Mannosamine]
590 nm absorbance normalized to zero hour (substrate use), 1 hr [1]: 0.90
590 nm absorbance normalized to zero hour (substrate use), 2 hr [1]: 0.77
590 nm absorbance normalized to zero hour (substrate use), 3 hr [1]: 0.71
590 nm absorbance normalized to zero hour (substrate use), 4 hr [1]: 0.68
590 nm absorbance normalized to zero hour (substrate use), 6 hr [1]: 0.65
590 nm absorbance normalized to zero hour (substrate use), 8 hr [1]: 0.63
590 nm absorbance normalized to zero hour (substrate use), 9 hr [1]: 0.58
590 nm absorbance normalized to zero hour (substrate use), 10 hr [1]: 0.67
590 nm absorbance normalized to zero hour (substrate use), 11 hr [1]: 0.66
Substrate use, 590 nm absorbance normalized to zero hour, 1 hr [1]: 0.90
Substrate use, 590 nm absorbance normalized to zero hour, 5 hr [1]: 0.68
Substrate use, 590 nm absorbance normalized to zero hour, 7 hr [1]: 0.61
Substrate use, 590 nm absorbance normalized to zero hour, 1 hr [2]: 1.40
Substrate use, 590 nm absorbance normalized to zero hour, 5 hr [2]: 2.60
Substrate use, 590 nm absorbance normalized to zero hour, 7 hr [2]: 2.89
590 nm absorbance normalized to zero hour (substrate use), 1 hr [3]: 1.40
590 nm absorbance normalized to zero hour (substrate use), 2 hr [3]: 1.88
590 nm absorbance normalized to zero hour (substrate use), 3 hr [3]: 2.13
590 nm absorbance normalized to zero hour (substrate use), 4 hr [3]: 2.22
590 nm absorbance normalized to zero hour (substrate use), 6 hr [3]: 2.70
590 nm absorbance normalized to zero hour (substrate use), 8 hr [3]: 3.09
590 nm absorbance normalized to zero hour (substrate use), 9 hr [3]: 3.29
590 nm absorbance normalized to zero hour (substrate use), 10 hr [3]: 3.34
590 nm absorbance normalized to zero hour (substrate use), 11 hr [3]: 3.55

O=C(O)CCCO [g-Hydroxy-Butyric Acid]
590 nm absorbance normalized to zero hour (substrate use), 0 hr [1]: 1.00
590 nm absorbance normalized to zero hour (substrate use), 1 hr [1]: 1.24
590 nm absorbance normalized to zero hour (substrate use), 2 hr [1]: 1.38
590 nm absorbance normalized to zero hour (substrate use), 3 hr [1]: 1.92
590 nm absorbance normalized to zero hour (substrate use), 4 hr [1]: 1.86
590 nm absorbance normalized to zero hour (substrate use), 6 hr [1]: 0.79
590 nm absorbance normalized to zero hour (substrate use), 8 hr [1]: 1.94
590 nm absorbance normalized to zero hour (substrate use), 9 hr [1]: 2.09
590 nm absorbance normalized to zero hour (substrate use), 10 hr [1]: 2.05
590 nm absorbance normalized to zero hour (substrate use), 11 hr [1]: 2.76
Substrate use, 590 nm absorbance normalized to zero hour, 0 hr [1]: 1.00
Substrate use, 590 nm absorbance normalized to zero hour, 1 hr [1]: 1.24
Substrate use, 590 nm absorbance normalized to zero hour, 5 hr [1]: 1.71
Substrate use, 590 nm absorbance normalized to zero hour, 7 hr [1]: 1.88
590 nm absorbance normalized to zero hour (substrate use), 0 hr [4]: 1.00
590 nm absorbance normalized to zero hour (substrate use), 1 hr [4]: 0.53
590 nm absorbance normalized to zero hour (substrate use), 2 hr [4]: 0.53
590 nm absorbance normalized to zero hour (substrate use), 3 hr [4]: 0.41
590 nm absorbance normalized to zero hour (substrate use), 4 hr [4]: 0.44
590 nm absorbance normalized to zero hour (substrate use), 5 hr [4]: 0.50
590 nm absorbance normalized to zero hour (substrate use), 6 hr [4]: 0.54
590 nm absorbance normalized to zero hour (substrate use), 7 hr [4]: 0.56
590 nm absorbance normalized to zero hour (substrate use), 8 hr [4]: 0.59
590 nm absorbance normalized to zero hour (substrate use), 9 hr [4]: 0.62
590 nm absorbance normalized to zero hour (substrate use), 10 hr [4]: 0.63
590 nm absorbance normalized to zero hour (substrate use), 11 hr [4]: 0.53
590 nm absorbance normalized to zero hour (substrate use), 0 hr [5]: 1.00
590 nm absorbance normalized to zero hour (substrate use), 1 hr [5]: 0.53
590 nm absorbance normalized to zero hour (substrate use), 2 hr [5]: 0.53
590 nm absorbance normalized to zero hour (substrate use), 3 hr [5]: 0.41
590 nm absorbance normalized to zero hour (substrate use), 4 hr [5]: 0.44
590 nm absorbance normalized to zero hour (substrate use), 5 hr [5]: 0.50
590 nm absorbance normalized to zero hour (substrate use), 6 hr [5]: 0.54
590 nm absorbance normalized to zero hour (substrate use), 7 hr [5]: 0.56
590 nm absorbance normalized to zero hour (substrate use), 8 hr [5]: 0.59
590 nm absorbance normalized to zero hour (substrate use), 9 hr [5]: 0.62
590 nm absorbance normalized to zero hour (substrate use), 10 hr [5]: 0.63
590 nm absorbance normalized to zero hour (substrate use), 11 hr [5]: 0.53

Dextrin
590 nm absorbance normalized to zero hour (substrate use), 0 hr [1]: 1.00
590 nm absorbance normalized to zero hour (substrate use), 2 hr [1]: 3.19
590 nm absorbance normalized to zero hour (substrate use), 3 hr [1]: 4.01
590 nm absorbance normalized to zero hour (substrate use), 6 hr [1]: 4.79
590 nm absorbance normalized to zero hour (substrate use), 8 hr [1]: 8.34
590 nm absorbance normalized to zero hour (substrate use), 9 hr [1]: 9.71
590 nm absorbance normalized to zero hour (substrate use), 10 hr [1]: 8.28
590 nm absorbance normalized to zero hour (substrate use), 11 hr [1]: 8.41
Substrate use, 590 nm absorbance normalized to zero hour, 0 hr [1]: 1.00
Substrate use, 590 nm absorbance normalized to zero hour, 5 hr [1]: 6.14
Substrate use, 590 nm absorbance normalized to zero hour, 7 hr [1]: 7.35
590 nm absorbance normalized to zero hour (substrate use), 0 hr [3]: 1.00
590 nm absorbance normalized to zero hour (substrate use), 1 hr [3]: 2.14
590 nm absorbance normalized to zero hour (substrate use), 2 hr [3]: 2.79
590 nm absorbance normalized to zero hour (substrate use), 3 hr [3]: 3.43
590 nm absorbance normalized to zero hour (substrate use), 4 hr [3]: 3.84
590 nm absorbance normalized to zero hour (substrate use), 5 hr [3]: 4.91
590 nm absorbance normalized to zero hour (substrate use), 6 hr [3]: 5.56
590 nm absorbance normalized to zero hour (substrate use), 7 hr [3]: 6.11
590 nm absorbance normalized to zero hour (substrate use), 8 hr [3]: 6.72
590 nm absorbance normalized to zero hour (substrate use), 9 hr [3]: 7.89
590 nm absorbance normalized to zero hour (substrate use), 10 hr [3]: 8.23
590 nm absorbance normalized to zero hour (substrate use), 11 hr [3]: 6.40
590 nm absorbance normalized to zero hour (substrate use), 0 hr [5]: 1.00
590 nm absorbance normalized to zero hour (substrate use), 1 hr [5]: 2.14
590 nm absorbance normalized to zero hour (substrate use), 2 hr [5]: 2.79
590 nm absorbance normalized to zero hour (substrate use), 3 hr [5]: 3.43
590 nm absorbance normalized to zero hour (substrate use), 4 hr [5]: 3.84
590 nm absorbance normalized to zero hour (substrate use), 5 hr [5]: 4.91
590 nm absorbance normalized to zero hour (substrate use), 6 hr [5]: 5.56
590 nm absorbance normalized to zero hour (substrate use), 7 hr [5]: 6.11
590 nm absorbance normalized to zero hour (substrate use), 8 hr [5]: 6.72
590 nm absorbance normalized to zero hour (substrate use), 9 hr [5]: 7.89
590 nm absorbance normalized to zero hour (substrate use), 10 hr [5]: 8.23
590 nm absorbance normalized to zero hour (substrate use), 11 hr [5]: 6.40
